According to patent US10093678B2, “Azaspiro derivatives as TRPM8 antagonists” (RaQualia Pharma Inc., priority 2014, dated 2018):

molecular target: T1, human TRPM8 (Homo sapiens, UniProt Q7Z2W7); assay: Menthol-induced Ca2+ influx in HEK293 cells stably expressing human TRPM8; type: cell-based; conditions: 30 microM menthol-induced Ca2+ influx, read-out: IC50 against TRPM8
T1 construct: expressed in transfected cells; host or cells: HEK293
Experimental: Measurement of the Menthol-Induced Ca^2+ Influx in HEK293 Cells Stably Expressing Human TRPM8
A cell-based Ca^2+ influx assay using HEK293 cells stably expressing human TRPM8 is used to identify the activity of compounds.
HEK293 cells stably expressing human TRPM8 are grown in T175 flasks at 37° C. in a 5% CO2 humidified incubator to about 80% confluence. Media composition consists of Dulbecco's Modified Eagle Medium (high glucose), 10% fetal calf serum (FCS), 100 units/mLPenicillin, 100 microg/mL Streptomycin and 600 microg/mL Geneticine. At 24 hours prior to assay, cells are seeded in poly-D-lysine coated 384-well plates (BD FALCON) at a density of 30,000 cells per well in culture medium and grown overnight in 5% CO2 at 37° C. On the assay day, growth media is removed and cells are loaded with 0.5 microM Fluo4-AM (Molecular Probes) and 0.005% Pluronic F-127 dissolved in assay buffer (Hank's balanced salt solution (HBSS), 19.4 mM HEPES pH7.4, 2.5 mM Probenecid) for 1 hour at room temperature. After washing with assay buffer, the cells are preincubated with various concentrations of the compounds for 5 min. The changes in intracellular calcium concentration by addition of 30 microM menthol are monitored by the cell imaging technology by Hamamatsu Photonics Functional Drug Screening System (FDSS).
The IC50 values for compounds of the present invention are determined from 11-point dose-response studies. Curves are generated using the average of duplicate wells for each data point. Finally, the IC50 values are calculated with the best-fit dose curve determined by XLfit (ID Business Solutions Ltd.).

T1 sequence (Q7Z2W7 whole entry): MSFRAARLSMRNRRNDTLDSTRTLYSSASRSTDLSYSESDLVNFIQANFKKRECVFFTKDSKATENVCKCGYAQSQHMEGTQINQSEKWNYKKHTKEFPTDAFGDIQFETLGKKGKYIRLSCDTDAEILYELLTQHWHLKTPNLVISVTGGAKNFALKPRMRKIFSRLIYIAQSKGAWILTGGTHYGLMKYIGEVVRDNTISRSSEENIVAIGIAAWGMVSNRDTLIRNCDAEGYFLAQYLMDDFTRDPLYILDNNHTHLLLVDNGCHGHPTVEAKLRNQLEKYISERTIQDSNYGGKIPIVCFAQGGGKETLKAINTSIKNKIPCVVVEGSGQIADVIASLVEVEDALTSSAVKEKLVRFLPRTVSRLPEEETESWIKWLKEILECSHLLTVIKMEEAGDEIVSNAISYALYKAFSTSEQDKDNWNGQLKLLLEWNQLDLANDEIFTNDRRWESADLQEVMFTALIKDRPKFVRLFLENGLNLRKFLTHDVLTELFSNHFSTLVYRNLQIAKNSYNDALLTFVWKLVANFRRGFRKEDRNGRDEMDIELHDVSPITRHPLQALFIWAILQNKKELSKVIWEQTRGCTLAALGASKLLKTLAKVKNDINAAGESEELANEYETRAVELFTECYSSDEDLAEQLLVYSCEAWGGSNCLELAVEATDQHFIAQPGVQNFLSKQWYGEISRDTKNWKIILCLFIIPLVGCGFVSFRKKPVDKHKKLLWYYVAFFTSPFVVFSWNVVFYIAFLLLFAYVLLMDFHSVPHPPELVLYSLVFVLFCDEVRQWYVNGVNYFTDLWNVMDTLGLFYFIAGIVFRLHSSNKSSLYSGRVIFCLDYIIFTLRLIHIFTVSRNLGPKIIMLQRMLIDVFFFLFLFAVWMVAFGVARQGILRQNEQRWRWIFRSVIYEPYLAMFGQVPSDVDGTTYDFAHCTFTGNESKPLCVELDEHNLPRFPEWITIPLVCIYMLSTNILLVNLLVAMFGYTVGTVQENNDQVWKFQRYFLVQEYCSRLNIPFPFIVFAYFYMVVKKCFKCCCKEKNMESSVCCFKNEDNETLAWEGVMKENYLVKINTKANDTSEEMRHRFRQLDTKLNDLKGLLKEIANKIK

| IC50 | Structure (SMILES) |
| --- | --- |
| < 100 nM | O=C(CN1C(=O)NC2(CCC(F)(F)CC2)C1=O)c1ccc(-c2cncc3[nH]ccc23)nc1 [Example 9-23] |
| < 500 nM | Cc1cc(C(=O)CN2C(=O)NC3(CCC(F)(F)CC3)C2=O)n(C)c1-c1cccc2[nH]ncc12 [Example 16-35] |
| < 100 nM | Cc1ccncc1-c1c(F)cc(C(=O)CN2C(=O)NC3(CCC(F)(F)CC3)C2=O)cc1F [Example 13-30] |
| < 10 nM | O=C(CN1C(=O)NC2(CCC(F)(F)CC2)C1=O)c1ccc(-c2ccnc3[nH]ncc23)cc1 [Example 6-1] |
| < 100 nM | O=C(CN1C(=O)NC2(CCC(F)(F)CC2)C1=O)c1ccc(-c2ccnc3[nH]ccc23)nc1 [Example 9-22] |
| < 100 nM | COc1ccncc1-c1ccc(C(=O)CN2C(=O)NC3(CCC(F)(F)CC3)C2=O)cc1 [Example 13-39] |
| < 100 nM | O=C(CN1C(=O)NC2(CCCCC2)C1=O)c1ccc(Oc2ccccc2)cc1 [Example 5-19] |
| < 100 nM | O=C(CN1C(=O)NC2(CCC(F)(F)CC2)C1=O)c1ccc(-c2cccc3[nH]ncc23)cc1 [Example 13-40] |
| < 100 nM | O=C(CN1C(=O)NC2(CCC(F)(F)CC2)C1=O)c1cnc(-c2ccccc2CO)cn1 [Example 12-3] |
| < 10 nM | O=C(CN1C(=O)NC2(CCC(F)(F)CC2)C1=O)c1ccc(-c2cccc3ccncc23)cc1 [Example 13-36] |
| < 100 nM | COc1cccnc1-c1ccc(C(=O)CN2C(=O)NC3(CCC(F)(F)CC3)C2=O)cc1 [Example 6-84] |
| < 100 nM | Cc1cccc(-n2c(C)cc(C(=O)CN3C(=O)NC4(CCCCC4)C3=O)c2C)c1 [Example 3-6] |
| < 100 nM | O=C(CN1C(=O)OC2(CCC(F)(F)CC2)C1=O)c1ccc(-c2ncccn2)cc1 [Example 7-26] |
| < 500 nM | Cc1cnc(C)c(-c2ccc(C(=O)CN3CC4(CCC(F)(F)CC4)OC3=O)cc2)n1 [Example 7-17] |
| < 100 nM | O=C(CN1C(=O)NC2(CCC(F)(F)CC2)C1=O)c1ccc(-c2ncccc2Cl)cc1 [Example 6-22] |
| < 100 nM | CN(c1ccc(C(=O)CN2C(=O)NC3(CCC(F)(F)CC3)C2=O)cc1)c1ccccn1 [Example 19-16] |
| < 100 nM | O=C(CN1C(=O)NC2(CCC(F)(F)CC2)C1=O)c1ccc(-c2cccnc2CO)c(F)c1 [Example 8-5] |
| < 100 nM | O=C(CN1C(=O)NC2(CCC(F)(F)CC2)C1=O)c1ccc(-n2c(=O)[nH]c3ccccc32)cc1 [Example 19-22] |
| < 500 nM | NC(=O)c1cccc(-c2ccc(C(=O)CN3C(=O)NC4(CCC(F)(F)CC4)C3=O)cc2)c1 [Example 6-110] |
| < 100 nM | CN(c1ccccc1)c1ccc(C(=O)CN2C(=O)NC3(CCC(F)(F)CC3)C2=O)cn1 [Example 19-9] |
| < 100 nM | O=C(CN1C(=O)NC2(CCC(F)(F)CC2)C1=O)c1ccc(Oc2nccs2)cc1 [Example 21-13, 8,8-difluoro-3-(2-oxo-2-(4-(thiazol-2-yloxy)phenyl)ethyl)-1,3-diazaspiro[4.5]decane-2,4-dione] |
| < 100 nM | Cc1nc(C(=O)CN2C(=O)NC3(CCC(F)(F)CC3)C2=O)sc1-c1ccccc1CO [Example 18-4] |
| < 100 nM | O=C(CN1C(=O)NC2(CCC(F)(F)CC2)C1=O)c1ccc(-c2ccnc3ccccc23)cc1 [Example 13-43] |
| < 100 nM | Cc1ccncc1-c1ccc(C(=O)CN2C(=O)NC3(CCCCC3)C2=O)cc1 [Example 7-2] |
| < 100 nM | CN(c1ccccc1)c1ccc(C(=O)CN2C(=O)NC3(CCCCC3)C2=O)cn1 [Example 19-5] |
| < 100 nM | Cc1ccc2ncn(-c3ccc(C(=O)CN4C(=O)NC5(CCC(F)(F)CC5)C4=O)cc3)c2n1 [Example 26-2] |
| < 10 nM | Cc1ccncc1-c1ccc(C(=O)CN2C(=O)NC3(CCCCC3)C2=O)cn1 [Example 9-1] |
| < 100 nM | Cc1nc(C(=O)CN2C(=O)NC3(CCC(F)(F)CC3)C2=O)sc1-c1cccnc1 [Example 18-1] |
| < 500 nM | O=C(CN1C(=O)NC2(CCC(F)(F)CC2)C1=O)c1ccc(-c2ccccc2CN2CCCC2)cc1 [Example 6-104] |
| < 100 nM | O=C(CN1C(=O)NC2(CCC(F)(F)CC2)C1=O)c1ccc(-c2cncc3ccccc23)nc1 [Example 9-16] |
